Drawing on patent US20240148821A1, “PHARMACEUTICAL USE OF CYCLIC PEPTIDE COMPOUND” (CHUGAI SEIYAKU KABUSHIKI KAISHA, priority 2021, published 2024), this text covers IC50 for 10 compounds.

Numbered stars: 1 amine (or outer) side, 2 acyl side, 3 side chain; on linkers, the order of the positions; unused ones are H or OH. Bridge positions count the residues as written; N and C are the ends. Square brackets hold non-standard residues; d marks the D form. Peptide text beside a SMILES is read from it. * marks the point of attachment. NMeAbu(3,3-F2-piperidino) = CN[C@@H](CCN1CCCC(F)(F)C1)C(=O)O; hPhe(3-Cl-4-CF3) = N[C@@H](CCc1ccc(C(F)(F)F)c(Cl)c1)C(=O)O; X27 = CN([C@@H](Cc1ccc(C(F)(F)F)nc1)C(=O)[*:2])[*:1]; NMePhe(4-CF3) = CN[C@@H](Cc1ccc(C(F)(F)F)cc1)C(=O)O; X126 = O=C([C@H](Cc1cc(F)cc(I)c1)N[*:1])[*:2]; NMePhe(4-Me) = CN[C@@H](Cc1ccc(C)cc1)C(=O)O; NMeGly(cPent) = CN[C@H](C(=O)O)C1CCCC1; Phe(3-I) = N[C@@H](Cc1cccc(I)c1)C(=O)O; Phe(2-F) = N[C@@H](Cc1ccccc1F)C(=O)O; Phe(2-Me) = Cc1ccccc1C[C@H](N)C(=O)O; NMeY = CN[C@@H](Cc1ccc(O)cc1)C(=O)O; NMeCha = CN[C@@H](CC1CCCCC1)C(=O)O; NMeChg = CN[C@H](C(=O)O)C1CCCCC1; NMeT = CN[C@H](C(=O)O)[C@@H](C)O; NMeD = CN[C@@H](CC(=O)O)C(=O)O; NMeL = CN[C@@H](CC(C)C)C(=O)O; NMePra = C#CC[C@H](NC)C(=O)O; d(β3hA) = C[C@@H](N)CC(=O)O; NMeAbu = CC[C@H](NC)C(=O)O; NMeA = CN[C@@H](C)C(=O)O; NMeAib = CNC(C)(C)C(=O)O; Nle = CCCC[C@H](N)C(=O)O; Piperidide = C1CCN(*)CC1; dNMeA = CN[C@H](C)C(=O)O; Ac5c = NC1(C(=O)O)CCCC1; Aze = O=C(O)[C@@H]1CCN1; Sar = CNCC(=O)O

The experiment has as its system Human pancreatic cancer cell line AsPC-1 (G12D mutation Kras). In words: AsPC-1 cell growth inhibition (AsPC-1 CGI). Format: cell-based. As to conditions: read-out: AsPC-1 cell growth inhibition, 50% growth inhibitory concentration (IC50 value); 96 hours, CellTiter-Glo, values classified in ranges. (In general: ATP-based viability assays read luminescence as a measure of living cells.)
Protocol: Test compounds were serially dilated with dimethyl sulfoxide, and 200 nL was then dispensed to a U-bottom 96-well plate using Labcyte Echo. […] The cell suspension was dispensed to a. plate containing a test compound at 100 μL per well and incubated at 37° C. in a 5% carbon dioxide gas incubator. 96 hours later, 80 μL of CellTiter-Glo (Promega) was added to each well and fluorescence was measured.
Consider `CC[C@H](C)[C@@H]1NC(=O)[C@H](CC(C)C)N(C)C(=O)C[C@@H](C(=O)N(C)C)N(C)C(=O)[C@H](C2CCCC2)N(C)C(=O)[C@H](C)NC(=O)[C@H](CCN2CCCC(F)(F)C2)N(C)C(=O)[C@H](CCc2ccc(C(F)(F)F)c(Cl)c2)NC(=O)CN(C)C(=O)[C@H](CC2CCCCC2)N(C)C(=O)[C@@H]2CCN2C(=O)[C@H](C)N(C)C1=O` [Compound 1081] ([NMeL]I[NMeA][Aze][NMeCha][Sar][hPhe(3-Cl-4-CF3)][NMeAbu(3,3-F2-piperidino)]A[NMeGly(cPent)][NMeD]-NMe2; lactam N-11), for which the IC50 is greater than 0.5 µM. Then `CC[C@H](C)[C@@H]1NC(=O)[C@H](CC(C)C)N(C)C(=O)C[C@@H](C(=O)N2CCCCC2)N(C)C(=O)[C@H](CC(C)C)NC(=O)C(C)(C)N(C)C(=O)[C@H](Cc2ccccc2C)NC(=O)[C@H](Cc2cccc(I)c2)NC(=O)CN(C)C(=O)[C@H](Cc2ccc(C)cc2)N(C)C(=O)[C@@H]2CCN2C(=O)CN(C)C1=O` [Compound 335] ([NMeL]I[Sar][Aze][NMePhe(4-Me)][Sar][Phe(3-I)][Phe(2-Me)][NMeAib]L[NMeD]-Piperidide; lactam N-11), with greater than 0.5 µM.

In the case of `CC[C@H](C)[C@@H]1NC(=O)[C@H](CC(C)C)N(C)C(=O)C[C@@H](C(=O)N2CCCCC2)N(C)C(=O)[C@H](CC(C)C)NC(=O)C(C)(C)N(C)C(=O)[C@H](Cc2ccccc2F)NC(=O)[C@H](Cc2cccc(I)c2)NC(=O)CN(C)C(=O)[C@H](Cc2ccc(C)cc2)N(C)C(=O)[C@@H]2CCN2C(=O)CN(C)C1=O` [Compound 638] ([NMeL]I[Sar][Aze][NMePhe(4-Me)][Sar][Phe(3-I)][Phe(2-F)][NMeAib]L[NMeD]-Piperidide; lactam N-11), the IC50 is greater than 0.5 µM.

For the compound `C#CC[C@H]1C(=O)N(C)[C@H](C(=O)N2CCCCC2)CC(=O)N(C)[C@@H](CC(C)C)C(=O)N[C@@H]([C@@H](C)CC)C(=O)N(C)CC(=O)N(C)CC(=O)N(C)[C@@H](CC2CCCCC2)C(=O)N(C)CC(=O)N[C@@H](CCc2ccc(C(F)(F)F)c(Cl)c2)C(=O)N2CCC[C@H]2C(=O)NC2(CCCC2)C(=O)N1C` [Compound 284] ([NMeL]I[Sar][Sar][NMeCha][Sar][hPhe(3-Cl-4-CF3)]P[Ac5c][NMePra][NMeD]-Piperidide; lactam N-11), the IC50 is greater than 0.5 µM. Turning to `CC[C@H](C)[C@@H]1NC(=O)[C@H](CC(C)C)N(C)C(=O)C[C@@H](C(=O)N2CCCCC2)N(C)C(=O)[C@H](C2CCCCC2)N(C)C(=O)C2(CCCC2)NC(=O)[C@H](Cc2ccc(C(F)(F)F)nc2)N(C)C(=O)[C@H](CCc2ccc(C(F)(F)F)c(Cl)c2)NC(=O)CN(C)C(=O)[C@H](CC2CCCCC2)N(C)C(=O)[C@@H]2CCN2C(=O)CN(C)C1=O` [Compound 6] ([NMeL]I[Sar][Aze][NMeCha][Sar][hPhe(3-Cl-4-CF3)][X27][Ac5c][NMeChg][NMeD]-Piperidide; lactam N-11), the IC50 was greater than 0.5 µM.

In the case of `CC(C)C[C@H]1C(=O)N[C@@H](C(C)C)C(=O)N(C)CC(=O)N(C)CC(=O)N(C)[C@@H](CC2CCCCC2)C(=O)N(C)CC(=O)N[C@@H](CCc2ccc(C(F)(F)F)c(Cl)c2)C(=O)N2CCC[C@H]2C(=O)NC2(CCCC2)C(=O)N(C)[C@@H](CC(C)C)C(=O)N[C@H](C)CC(=O)N1C` [Compound 1452] (cyclo([Ac5c][NMeL][d(β3hA)][NMeL]V[Sar][Sar][NMeCha][Sar][hPhe(3-Cl-4-CF3)]P)), the IC50 was greater than 0.5 µM. The figure for `CC(C)C[C@H]1C(=O)N[C@@H]([C@@H](C)O)C(=O)N(C)CC(=O)N(C)CC(=O)N(C)[C@@H](CC2CCCCC2)C(=O)N(C)CC(=O)N[C@@H](CCc2ccc(C(F)(F)F)c(Cl)c2)C(=O)N2CCC[C@H]2C(=O)NC2(CCCC2)C(=O)N(C)[C@@H](C2CCCCC2)C(=O)N(C)[C@H](C(=O)N2CCCCC2)CC(=O)N1C` [Compound 603] ([NMeL]T[Sar][Sar][NMeCha][Sar][hPhe(3-Cl-4-CF3)]P[Ac5c][NMeChg][NMeD]-Piperidide; lactam N-11) is greater than 0.5 µM; for `CC[C@H](C)[C@@H]1NC(=O)[C@H](CC(C)C)N(C)C(=O)C[C@@H](C(=O)N2CCCCC2)N(C)C(=O)[C@H](C2CCCCC2)N(C)C(=O)C2(CCCC2)NC(=O)[C@@H]2CCCN2C(=O)[C@H](CCc2ccc(C(F)(F)F)c(Cl)c2)NC(=O)CN(C)C(=O)[C@H]([C@@H](C)O)N(C)C(=O)CN(C)C(=O)CN(C)C1=O` [Compound 427] ([NMeL]I[Sar][Sar][NMeT][Sar][hPhe(3-Cl-4-CF3)]P[Ac5c][NMeChg][NMeD]-Piperidide; lactam N-11) it is greater than 0.5 µM. `CC[C@H](C)[C@@H]1NC(=O)[C@H](C)N(C)C(=O)C[C@@H](C)NC(=O)[C@H](C2CCCC2)N(C)C(=O)C2(CCCC2)NC(=O)[C@@H]2CCCN2C(=O)[C@H](CCc2ccc(C(F)(F)F)c(Cl)c2)NC(=O)[C@@H](C)N(C)C(=O)[C@H](Cc2ccc(C(F)(F)F)cc2)N(C)C(=O)[C@@H]2CCN2C(=O)CN(C)C1=O` [Compound 1507] (cyclo([Ac5c][NMeGly(cPent)][d(β3hA)][NMeA]I[Sar][Aze][NMePhe(4-CF3)][dNMeA][hPhe(3-Cl-4-CF3)]P)): the IC50 was greater than 0.5 µM.

Take `CCCC[C@@H]1NC(=O)[C@H](Cc2cc(F)cc(I)c2)NC(=O)CN(C)C(=O)[C@H](Cc2ccc(OC)cc2)N(C)C(=O)[C@@H]2CCN2C(=O)[C@H](C)N(C)C(=O)[C@H]([C@@H](C)CC)NC(=O)[C@H](CC)N(C)C(=O)C[C@@H](C(=O)N2CCCCC2)N(C)C(=O)[C@H](CC(C)C)NC(=O)C(C)(C)N(C)C1=O` [Compound 1226] ([NMeAbu]I[NMeA][Aze][NMeY](Me)[Sar][X126][Nle][NMeAib]L[NMeD]-Piperidide; lactam N-11): the IC50 was greater than 0.5 µM.
